From PMC8065100, “How cyanophage S-2L rejects adenine and incorporates 2-aminoadenine to saturate hydrogen bonding in its DNA” (Nature Communications, 2021)

Columns and labels:
[1] = target: T1, DatZ (S-2L HD phosphohydrolase) (Cyanophage S-2L, UniProt A0A7U3TCA2); test: X-ray crystal structure; hydrolysis to dA seen by HPLC; type: binding; conditions: crystals grown with 10 mM EDTA, pH 7; active site; partially occupied Zn2+ in site A; HPLC assay: 20 mM Tris pH 7, 5 mM MgCl2, 37 °C
T1 construct: full length 175 aa, synthetic codon-optimised gene, N-terminal 14-His tag removed by TEV, E. coli host, hexamer (D3)

[2] = target: S-2L DatZ (dATP triphosphohydrolase, HD-domain phosphohydrolase of cyanophage S-2L) (cyanophage S-2L); test: AUC + other: DLS; in vitro; stoichiometry worked out assuming a perfectly globular shape; conditions not given

Compound | X-ray crystal structure; hydrolysis to dA seen by HPLC [1] | stoichiometry N (protomers per oligomer) [2]
Nc1ncnc2c1ncn2[C@H]1C[C@H](O)[C@@H](COP(=O)(O)OP(=O)(O)OP(=O)(O)O)O1 [dATP] | we solved a third structure of DatZ, this time with bound dATP (PDB ID: 6ZPC | 
S-2L DatZ (dATP triphosphohydrolase, HD-domain phosphohydrolase of cyanophage S-2L) (enzyme) |  | 5.9
